Data taken from ChEMBL document CHEMBL1201862, “PubChem BioAssay data set” (2004).
The source made the active and inactive calls.

Assays:
[1] = general mammalian cell viability loss – inhibitor set, cherry-pick, set 2, cytotoxicity control for miR-122 modulator project, dose response (AID 720697); type: functional, cell-based
Beta-galactosidase = Beta-galactosidase (Escherichia coli, UniProt Q8VNN2); test: detection-enzyme interference by beta-gal modulators – biochemical, E. coli enzyme, set 3, artefact control for CCR6 antagonist project, dose response (AID 504712); type: functional
HEK293 = test: EBV LMP1 TES2 canonical NF-kB signalling blockers – cell-based, HEK293, luciferase, cherry-pick, dose response (AID 588343); type: functional; details: Homo sapiens
Paired box protein Pax-8 = Paired box protein Pax-8 (Homo sapiens, UniProt Q06710); test: PAX8 transcriptional activity inhibition in RMG-I – RMG-I cells, luciferase, cherry-pick, dose response (AID 687027); type: functional, cell-based;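 further: luciferase reporter driven by Pax8 target thyroperoxidase promoter measured by SteadyGlo luminescence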
[2] = general cell-killing toxicity readout – plate reader, dry powder samples, cytotoxicity control for PAX8 inhibitor project, dose response (AID 743021); type: functional, cell-based
[3] = A549 cell cytotoxicity, dose response, cytotoxicity control, plate reader, cherry-pick, antagonist series (AID 743412); type: functional, cell-based
[4] = blockers of bursicon-stimulated LGR2 cAMP reporter – cell-based, HEK293, CRE-luciferase reporter, cherry pick, set 2, dose response (AID 743343); type: functional;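 further: transfected cells were stimulated with diluted bursicon conditioned medium after compound addition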
[5] = biological target: T1, Corticotropin-releasing factor receptor 2/Corticotropin-releasing factor-binding protein (Homo sapiens, UniProt P24387+Q13324); test: activators of CRF receptor 2 with binding protein – uHTS hits, confirmation (AID 602473); type: functional; details: read-out: EC50_Mean
T1 sequence (Q13324 whole entry): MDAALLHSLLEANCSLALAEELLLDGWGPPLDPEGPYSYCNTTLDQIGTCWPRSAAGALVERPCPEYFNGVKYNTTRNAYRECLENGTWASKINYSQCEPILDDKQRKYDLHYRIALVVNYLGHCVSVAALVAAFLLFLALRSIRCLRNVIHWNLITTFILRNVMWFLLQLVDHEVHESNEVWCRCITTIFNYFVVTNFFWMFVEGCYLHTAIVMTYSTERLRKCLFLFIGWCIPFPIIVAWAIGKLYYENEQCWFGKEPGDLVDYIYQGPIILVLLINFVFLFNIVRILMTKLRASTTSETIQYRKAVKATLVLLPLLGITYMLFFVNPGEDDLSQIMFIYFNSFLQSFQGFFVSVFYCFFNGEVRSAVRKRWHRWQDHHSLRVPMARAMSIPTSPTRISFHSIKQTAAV
T1 sequence (P24387 whole entry): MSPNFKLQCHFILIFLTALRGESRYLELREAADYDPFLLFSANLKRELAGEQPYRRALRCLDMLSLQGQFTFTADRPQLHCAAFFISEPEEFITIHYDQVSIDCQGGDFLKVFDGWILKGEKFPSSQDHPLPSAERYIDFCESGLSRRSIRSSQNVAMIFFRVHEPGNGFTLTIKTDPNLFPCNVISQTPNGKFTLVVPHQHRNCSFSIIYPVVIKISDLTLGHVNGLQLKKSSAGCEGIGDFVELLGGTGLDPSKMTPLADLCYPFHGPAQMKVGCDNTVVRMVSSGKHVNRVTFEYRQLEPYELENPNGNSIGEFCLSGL

[6] = blockers of CRF-binding protein–CRF-R2 complex – cell-based, uHTS hits, 384-well, dose response (AID 651639); type: functional, Homo sapiens; details: read-out: IC50_Mean
[7] = biological target: T1, Corticotropin-releasing factor receptor 2/Corticotropin-releasing factor-binding protein; test: Dose Response confirmation of uHTS hits for small molecule antagonists of the CRF-binding protein and CRF-R2 receptor complex.; type: functional; details: read-out: IC50_Mean
[8] = biological target: T2, Apoptotic protease-activating factor 1 (Homo sapiens, UniProt O14727); type: functional
T2 sequence (O14727 whole entry): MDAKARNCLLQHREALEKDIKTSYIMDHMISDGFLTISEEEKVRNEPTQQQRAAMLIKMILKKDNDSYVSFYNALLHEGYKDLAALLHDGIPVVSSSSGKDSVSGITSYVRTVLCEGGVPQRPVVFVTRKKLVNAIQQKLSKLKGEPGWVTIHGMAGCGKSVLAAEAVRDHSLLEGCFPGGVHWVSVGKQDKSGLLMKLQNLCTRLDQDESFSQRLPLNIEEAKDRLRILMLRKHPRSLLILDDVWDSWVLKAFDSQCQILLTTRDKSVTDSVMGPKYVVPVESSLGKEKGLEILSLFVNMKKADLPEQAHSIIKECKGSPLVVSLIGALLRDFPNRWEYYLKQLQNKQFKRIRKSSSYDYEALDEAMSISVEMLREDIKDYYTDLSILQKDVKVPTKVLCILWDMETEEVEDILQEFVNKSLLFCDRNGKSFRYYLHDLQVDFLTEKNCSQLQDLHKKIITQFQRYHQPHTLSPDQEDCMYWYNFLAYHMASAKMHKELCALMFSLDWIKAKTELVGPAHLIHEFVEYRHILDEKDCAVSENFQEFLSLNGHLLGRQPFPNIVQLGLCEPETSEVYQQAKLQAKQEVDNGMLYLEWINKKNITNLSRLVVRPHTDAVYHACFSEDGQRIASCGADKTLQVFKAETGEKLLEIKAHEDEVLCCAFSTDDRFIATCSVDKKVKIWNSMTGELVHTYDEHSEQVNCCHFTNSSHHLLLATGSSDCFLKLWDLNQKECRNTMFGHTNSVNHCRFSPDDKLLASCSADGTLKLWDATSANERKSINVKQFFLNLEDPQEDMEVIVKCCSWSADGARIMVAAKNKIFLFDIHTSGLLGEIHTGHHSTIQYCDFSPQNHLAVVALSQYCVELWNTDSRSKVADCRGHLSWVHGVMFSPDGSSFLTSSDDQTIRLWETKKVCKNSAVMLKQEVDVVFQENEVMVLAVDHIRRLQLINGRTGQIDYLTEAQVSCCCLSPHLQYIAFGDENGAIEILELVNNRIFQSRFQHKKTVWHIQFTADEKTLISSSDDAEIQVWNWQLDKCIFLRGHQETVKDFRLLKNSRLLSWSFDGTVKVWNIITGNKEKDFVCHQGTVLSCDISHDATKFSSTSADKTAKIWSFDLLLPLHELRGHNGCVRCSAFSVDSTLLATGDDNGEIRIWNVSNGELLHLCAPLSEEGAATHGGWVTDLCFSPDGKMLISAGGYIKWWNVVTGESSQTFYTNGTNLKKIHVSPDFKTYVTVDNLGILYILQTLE

[9] = biological target: Long-chain-fatty-acid--AMP ligase FadD28 (Mycobacterium tuberculosis, UniProt P9WQ59); test: Fluorescence polarization aasay to screen for inhibitors that compete for the binding of FadD28 to a bisubstrate Measured in Biochemical System Using Plate Reader - 2147-01_Inhibitor_Dose_CherryPick_Activity.; type: functional, Mycobacterium tuberculosis H37Rv
Vero = test: viability of Vero cells under compound – cytotoxicity control for flavivirus capping enzyme inhibitors (AID 588742); type: functional; details: Chlorocebus sabaeus
Genome polyprotein = Genome polyprotein (dengue virus type 2, UniProt P29990); test: flavivirus cap methylation enzyme inhibition – biochemical, confirmation dose response, primary screen (AID 588689); type: functional
[10] = activation of miR-122 Renilla sensor silencing – cell-based, Huh7 psiCHECK-miR122, Renilla luciferase, cherry-picked, dose response (AID 651956); type: functional;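 further: huh7 hepatoma cells stably carrying a psiCHECK-2 miR-122 sensor plasmid; renilla luciferase signal reporting endogenous miR-122 activity after 48 h compound exposure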
Cytochrome P450 2C9 = Cytochrome P450 2C9 (Homo sapiens, UniProt P11712)
[11] = biological target: T3, Endoribonuclease toxin MazF (Escherichia coli K-12, UniProt P0AE70); test: activation of MazEF endoribonuclease cleavage – biochemical, fluorescence, single-stranded RNA substrate, uHTS hits, dose response (AID 588481); type: functional
T3 sequence (P0AE70 whole entry): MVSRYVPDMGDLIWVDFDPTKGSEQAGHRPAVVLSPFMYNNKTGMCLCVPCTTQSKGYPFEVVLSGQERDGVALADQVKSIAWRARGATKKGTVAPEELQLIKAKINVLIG

[12] = biological target: T3, Endoribonuclease toxin MazF; test: substrate-only fluorescence increase artefacts – biochemical, single-stranded RNase substrate, counter-screen for MazEF activator project, dose response (AID 588502); type: functional
Cytochrome P450 3A4 = Cytochrome P450 3A4 (Homo sapiens, UniProt P08684);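 further: CYP3A4 tested as one member of a cytochrome P450 panel screen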
[13] = biological target: Glucose-6-phosphate 1-dehydrogenase (Homo sapiens, UniProt P11413); test: inhibition of Homo sapiens G6PD, dose series – biochemical, fluorescence, selectivity assay for P. falciparum G6PD inhibitor project, dose response (AID 504792); type: functional
[14] = inhibition of ARNT PAS-B/TACC3 complex formation – biochemical, AlphaScreen, cherry-picked samples, confirmation (AID 651703); type: functional, Homo sapiens;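 further: His-tagged ARNT PAS-B domain paired with GST-TACC3 E629A dimer coactivator fragment; potency of inhibitors that break up the complex and lower AlphaScreen signal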
cells = type: functional, cell-based
[15] = biological target: T4, Nuclear receptor subfamily 0 group B member 1 (Homo sapiens, UniProt P51843); type: functional, cell-based;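 further: HEK293T cells transfected with SF-1 and DAX-1 plus StAR promoter luciferase reporter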
T4 sequence (P51843 whole entry): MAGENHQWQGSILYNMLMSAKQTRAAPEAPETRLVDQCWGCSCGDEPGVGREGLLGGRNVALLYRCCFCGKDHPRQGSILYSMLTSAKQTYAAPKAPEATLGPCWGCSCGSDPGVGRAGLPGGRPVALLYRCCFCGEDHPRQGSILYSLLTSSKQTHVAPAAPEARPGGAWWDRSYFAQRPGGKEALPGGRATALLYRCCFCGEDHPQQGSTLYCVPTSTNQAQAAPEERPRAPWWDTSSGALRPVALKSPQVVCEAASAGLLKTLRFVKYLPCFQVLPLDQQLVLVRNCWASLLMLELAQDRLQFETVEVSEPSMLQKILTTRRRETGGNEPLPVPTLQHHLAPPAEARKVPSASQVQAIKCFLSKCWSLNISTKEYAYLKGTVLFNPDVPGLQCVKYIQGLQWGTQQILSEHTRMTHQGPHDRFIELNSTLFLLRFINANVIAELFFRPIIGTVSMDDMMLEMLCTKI

[16] = biological target: T5, Oxysterols receptor LXR-beta (Homo sapiens, UniProt P55055); type: functional, cell-based;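 further: agonist activity at LXR measured by a cell-based luminescence readout across a dose range, run as a counterscreen for daf-12 agonists; HEK293 cells with Gal4-LXR fusion and GAL4-driven luciferase reporter; potency for activation of Gal4-LXR reporter so compounds are agonists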
T5 sequence (P55055 whole entry): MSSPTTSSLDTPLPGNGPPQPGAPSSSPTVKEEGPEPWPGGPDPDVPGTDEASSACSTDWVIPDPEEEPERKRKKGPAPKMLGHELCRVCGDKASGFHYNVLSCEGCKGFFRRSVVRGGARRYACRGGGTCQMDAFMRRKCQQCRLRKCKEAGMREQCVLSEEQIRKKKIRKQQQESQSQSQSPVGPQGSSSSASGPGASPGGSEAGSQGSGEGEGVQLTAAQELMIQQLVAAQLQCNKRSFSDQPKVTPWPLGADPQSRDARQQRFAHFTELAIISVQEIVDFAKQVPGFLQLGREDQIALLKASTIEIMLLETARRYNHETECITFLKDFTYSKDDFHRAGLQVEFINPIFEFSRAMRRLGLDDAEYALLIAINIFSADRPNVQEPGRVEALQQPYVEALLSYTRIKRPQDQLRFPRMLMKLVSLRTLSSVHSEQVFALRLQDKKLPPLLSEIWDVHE

[17] = biological target: T6, Calpain-2 catalytic subunit (Sus scrofa, UniProt P43367); test: m-calpain protease blockers, concentration series – biochemical, fluorogenic peptide substrate, dose response (AID 1420); type: functional
T6 sequence (P43367 whole entry): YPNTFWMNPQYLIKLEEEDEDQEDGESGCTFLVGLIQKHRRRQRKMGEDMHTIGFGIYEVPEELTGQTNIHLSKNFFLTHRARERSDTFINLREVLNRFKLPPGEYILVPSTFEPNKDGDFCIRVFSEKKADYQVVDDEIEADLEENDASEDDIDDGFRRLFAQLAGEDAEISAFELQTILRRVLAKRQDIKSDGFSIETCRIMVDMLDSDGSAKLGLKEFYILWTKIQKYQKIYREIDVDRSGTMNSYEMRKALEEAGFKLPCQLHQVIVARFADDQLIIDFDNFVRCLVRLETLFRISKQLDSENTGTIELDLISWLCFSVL

Sequence of Long-chain-fatty-acid--AMP ligase FadD28 (P9WQ59 whole entry): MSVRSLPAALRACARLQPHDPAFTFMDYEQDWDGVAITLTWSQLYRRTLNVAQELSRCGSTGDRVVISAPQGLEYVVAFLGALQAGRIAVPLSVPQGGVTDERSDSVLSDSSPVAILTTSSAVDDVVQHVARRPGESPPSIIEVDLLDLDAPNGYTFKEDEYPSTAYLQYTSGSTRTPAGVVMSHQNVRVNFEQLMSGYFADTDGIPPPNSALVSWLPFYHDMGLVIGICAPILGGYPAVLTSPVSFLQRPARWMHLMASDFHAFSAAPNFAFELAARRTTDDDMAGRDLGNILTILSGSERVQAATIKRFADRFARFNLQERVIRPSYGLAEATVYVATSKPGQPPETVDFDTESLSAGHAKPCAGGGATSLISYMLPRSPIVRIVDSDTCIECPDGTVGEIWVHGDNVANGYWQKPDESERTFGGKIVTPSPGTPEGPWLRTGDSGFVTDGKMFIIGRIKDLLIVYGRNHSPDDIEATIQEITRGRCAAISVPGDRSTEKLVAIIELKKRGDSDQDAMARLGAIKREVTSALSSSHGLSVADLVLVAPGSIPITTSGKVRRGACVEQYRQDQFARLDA
Sequence of Paired box protein Pax-8 (Q06710 whole entry): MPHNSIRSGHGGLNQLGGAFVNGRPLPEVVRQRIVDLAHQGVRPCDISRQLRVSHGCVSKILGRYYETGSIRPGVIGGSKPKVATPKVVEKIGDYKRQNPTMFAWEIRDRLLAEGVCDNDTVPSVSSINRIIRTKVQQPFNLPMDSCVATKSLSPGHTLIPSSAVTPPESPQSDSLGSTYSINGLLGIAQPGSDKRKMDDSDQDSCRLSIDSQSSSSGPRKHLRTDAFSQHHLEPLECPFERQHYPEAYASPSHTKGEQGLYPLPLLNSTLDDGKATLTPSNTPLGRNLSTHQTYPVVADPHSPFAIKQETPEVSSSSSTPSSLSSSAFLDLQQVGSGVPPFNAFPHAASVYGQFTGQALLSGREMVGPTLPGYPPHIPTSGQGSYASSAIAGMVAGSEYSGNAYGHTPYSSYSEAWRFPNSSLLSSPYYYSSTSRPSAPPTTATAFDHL
Sequence of Cytochrome P450 3A4 (P08684 whole entry): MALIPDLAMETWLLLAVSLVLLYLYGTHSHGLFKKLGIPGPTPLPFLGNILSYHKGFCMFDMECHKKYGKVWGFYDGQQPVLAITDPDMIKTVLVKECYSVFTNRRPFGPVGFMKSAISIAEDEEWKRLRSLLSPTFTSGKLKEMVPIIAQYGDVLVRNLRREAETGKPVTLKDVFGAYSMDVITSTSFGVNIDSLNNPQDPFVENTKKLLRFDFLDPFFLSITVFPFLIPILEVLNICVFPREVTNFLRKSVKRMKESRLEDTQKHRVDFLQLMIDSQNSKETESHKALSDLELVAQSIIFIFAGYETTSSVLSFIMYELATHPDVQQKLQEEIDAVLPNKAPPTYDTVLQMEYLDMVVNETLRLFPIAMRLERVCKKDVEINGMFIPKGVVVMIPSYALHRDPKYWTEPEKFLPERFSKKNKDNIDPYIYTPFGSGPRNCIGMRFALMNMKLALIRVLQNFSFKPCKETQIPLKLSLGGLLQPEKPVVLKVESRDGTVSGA
Sequence of Beta-galactosidase (Q8VNN2 whole entry): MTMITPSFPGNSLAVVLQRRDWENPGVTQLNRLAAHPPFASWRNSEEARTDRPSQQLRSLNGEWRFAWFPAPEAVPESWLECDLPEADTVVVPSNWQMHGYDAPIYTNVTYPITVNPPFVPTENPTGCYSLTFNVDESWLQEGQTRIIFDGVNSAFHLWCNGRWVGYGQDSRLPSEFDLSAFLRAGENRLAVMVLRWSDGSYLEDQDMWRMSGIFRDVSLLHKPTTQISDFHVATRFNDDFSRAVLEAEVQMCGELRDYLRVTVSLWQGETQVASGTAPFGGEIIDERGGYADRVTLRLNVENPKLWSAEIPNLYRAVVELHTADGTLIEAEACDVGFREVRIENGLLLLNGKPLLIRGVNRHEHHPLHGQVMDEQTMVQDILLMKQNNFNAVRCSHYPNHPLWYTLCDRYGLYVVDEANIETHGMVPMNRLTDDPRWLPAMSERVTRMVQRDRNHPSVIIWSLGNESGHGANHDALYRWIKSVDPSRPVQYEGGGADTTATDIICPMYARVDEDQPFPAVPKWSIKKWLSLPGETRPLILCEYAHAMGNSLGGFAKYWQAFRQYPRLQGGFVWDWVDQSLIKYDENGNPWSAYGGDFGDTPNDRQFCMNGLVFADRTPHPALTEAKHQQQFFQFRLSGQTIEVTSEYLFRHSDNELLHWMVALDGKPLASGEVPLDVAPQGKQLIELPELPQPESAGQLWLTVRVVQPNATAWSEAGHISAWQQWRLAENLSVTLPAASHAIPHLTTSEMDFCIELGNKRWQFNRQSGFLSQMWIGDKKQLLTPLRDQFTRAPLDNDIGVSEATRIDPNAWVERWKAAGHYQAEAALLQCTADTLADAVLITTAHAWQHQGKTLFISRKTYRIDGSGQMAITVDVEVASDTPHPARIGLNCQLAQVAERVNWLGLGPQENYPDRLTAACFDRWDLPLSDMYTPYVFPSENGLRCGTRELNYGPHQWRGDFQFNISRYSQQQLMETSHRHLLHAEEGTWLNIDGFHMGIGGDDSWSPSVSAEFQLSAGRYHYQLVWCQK
Sequence of Glucose-6-phosphate 1-dehydrogenase (P11413 whole entry, the tested form may be a part): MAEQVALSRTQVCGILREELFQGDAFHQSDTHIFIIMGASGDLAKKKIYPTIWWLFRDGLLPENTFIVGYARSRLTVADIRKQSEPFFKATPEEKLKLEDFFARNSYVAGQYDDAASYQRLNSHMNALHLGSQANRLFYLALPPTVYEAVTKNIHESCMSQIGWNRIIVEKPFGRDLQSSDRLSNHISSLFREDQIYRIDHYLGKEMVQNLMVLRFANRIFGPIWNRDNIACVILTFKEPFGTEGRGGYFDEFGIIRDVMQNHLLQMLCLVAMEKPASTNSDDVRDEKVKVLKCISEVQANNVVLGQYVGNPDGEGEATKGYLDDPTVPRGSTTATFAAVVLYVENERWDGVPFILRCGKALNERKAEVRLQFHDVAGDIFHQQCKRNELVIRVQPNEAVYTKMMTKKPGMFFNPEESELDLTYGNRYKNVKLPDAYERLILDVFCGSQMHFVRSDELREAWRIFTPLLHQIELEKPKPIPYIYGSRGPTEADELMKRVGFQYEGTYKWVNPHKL
Sequence of Cytochrome P450 2C9 (P11712 whole entry): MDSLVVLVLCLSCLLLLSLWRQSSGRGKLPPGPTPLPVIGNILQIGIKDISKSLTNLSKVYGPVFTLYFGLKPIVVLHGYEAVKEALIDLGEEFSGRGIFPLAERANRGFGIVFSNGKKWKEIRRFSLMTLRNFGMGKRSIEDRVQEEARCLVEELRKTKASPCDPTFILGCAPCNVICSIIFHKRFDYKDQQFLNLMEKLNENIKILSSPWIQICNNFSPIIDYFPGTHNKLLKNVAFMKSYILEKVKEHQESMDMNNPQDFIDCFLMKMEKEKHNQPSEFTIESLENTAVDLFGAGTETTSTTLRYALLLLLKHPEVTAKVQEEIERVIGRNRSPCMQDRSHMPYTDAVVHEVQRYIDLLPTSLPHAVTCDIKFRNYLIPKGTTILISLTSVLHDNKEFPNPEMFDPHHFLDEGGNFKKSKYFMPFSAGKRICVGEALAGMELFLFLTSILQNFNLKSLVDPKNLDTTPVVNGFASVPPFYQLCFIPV
Sequence of Genome polyprotein (P29990 2492-3391 limits assumed): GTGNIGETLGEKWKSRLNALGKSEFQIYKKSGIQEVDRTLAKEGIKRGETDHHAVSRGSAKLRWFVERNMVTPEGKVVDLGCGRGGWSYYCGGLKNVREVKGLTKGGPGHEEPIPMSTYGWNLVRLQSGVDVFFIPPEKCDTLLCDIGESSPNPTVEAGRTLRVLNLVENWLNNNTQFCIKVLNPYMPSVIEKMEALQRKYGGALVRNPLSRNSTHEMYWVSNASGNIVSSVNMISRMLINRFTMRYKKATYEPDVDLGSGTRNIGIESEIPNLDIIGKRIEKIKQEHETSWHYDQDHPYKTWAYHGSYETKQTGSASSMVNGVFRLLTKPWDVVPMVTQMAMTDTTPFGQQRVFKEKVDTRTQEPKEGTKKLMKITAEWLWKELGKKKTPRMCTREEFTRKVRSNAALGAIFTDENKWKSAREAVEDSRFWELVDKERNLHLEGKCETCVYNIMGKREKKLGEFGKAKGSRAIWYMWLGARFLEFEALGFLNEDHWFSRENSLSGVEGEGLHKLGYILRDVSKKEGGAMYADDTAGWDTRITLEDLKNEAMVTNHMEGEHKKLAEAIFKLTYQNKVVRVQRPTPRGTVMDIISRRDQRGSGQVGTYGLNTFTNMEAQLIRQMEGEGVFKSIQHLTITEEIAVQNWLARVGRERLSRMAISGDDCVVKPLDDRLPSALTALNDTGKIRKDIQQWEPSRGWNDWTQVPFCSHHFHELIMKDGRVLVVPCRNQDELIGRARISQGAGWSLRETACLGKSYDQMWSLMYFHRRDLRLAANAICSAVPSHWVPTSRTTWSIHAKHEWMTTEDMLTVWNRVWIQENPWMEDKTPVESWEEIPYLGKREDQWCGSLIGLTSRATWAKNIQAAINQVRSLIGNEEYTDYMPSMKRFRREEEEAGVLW

CCn1nnnc1SCC(=O)Nc1nnc(C(C)C)s1
AC50 [1]: 7.36 µM (active)

COc1ccc(N2C(=O)CC(Sc3nnc(-c4ccccc4)o3)C2=O)cc1 (configuration not stated)
IC50 (Beta-galactosidase): > 66.6 µM (inactive) | AC50 (HEK293): 19.6 µM (active) | AC50 (Paired box protein Pax-8): 10.4 µM (active) | AC50 [2]: 44.9 µM (active)

NCC[C@H]1CC[C@H](NS(=O)(=O)Cc2ccccc2)[C@@H](CO)O1
AC50 [3]: > 52 µM (inactive) | AC50 [4]: 40.7 µM (active)

COc1ccc(C2CCCN2C(=O)Nc2ccc(C)c(C)c2)cc1OC (configuration not stated)
EC50 [5]: > 53 µM (inactive) | IC50 [6]: > 20 µM (inactive) | IC50 [7]: 42.4 µM (active)

Cc1coc2c1C(=O)C(=O)c1c-2ccc2c1CCCC2(C)C [TANSHINONE IIA]
IC50 [8]: 4.82 µM (active) | AC50 [9]: 88.9 µM (active) | CC50 (Vero): 9.09 µM (active) | IC50 (Genome polyprotein): > 100 µM (active)

COc1ccc(S(=O)(=O)N(C)C[C@@H]2Oc3ncc(/C=C/c4ccccc4)cc3C(=O)N([C@@H](C)CO)C[C@@H]2C)cc1
AC50 [10]: 2.03 µM (active)

CC1=Nc2ccccc2/C1=C\c1nc(-c2ccc(C(F)(F)F)cc2)oc1O
AC50 (Cytochrome P450 2C9): 12.6 µM (inconclusive) | EC50 [5]: 10.2 µM (active) | AC50 [9]: > 100 µM (inactive) | EC50 [11]: > 99 µM (inactive) | EC50 [12]: > 99 µM (inactive) | AC50 (Cytochrome P450 3A4): 28.2 µM (inconclusive)

COc1ccc(Cl)cc1NC(=O)c1cccc([N+](=O)[O-])c1O
EC50 [5]: > 53 µM (inactive) | IC50 [13]: 46.5 µM (inactive) | IC50 [6]: 8.13 µM (active) | IC50 [7]: 2.55 µM (active)

COc1ccc(-c2oc3cc(O)c(OC)c(O)c3c(=O)c2OC)cc1O [CENTAUREIDIN]
AC50 [14]: 101 µM (active) | IC50 (cells): > 67.5 µM (inactive) | IC50 [15]: 35 µM (inactive)

Oc1ccccc1-c1cc(-c2ccc3c(c2)OCCO3)[nH]n1
EC50 [16]: > 67.6 µM (inactive) | IC50 (cells): > 67.6 µM (inactive) | IC50 [15]: 17.6 µM (inactive) | IC50 [17]: > 50 µM (not active)
